# Laboratory results reported in patent US5733526A, “Hydrocarbon oil/fluorochemical preparations and methods of use” (priority 1995, dated 1998).
# How the values were obtained:
# [1] = Micelle formation in perfluorooctanes by FTIR (C-H stretching frequency); format: physicochemical; settings: in F-octanes
# Experimental: A series of solutions of CF3 (CF2) 7 (CH2) 15 CH3 (F8H16; 0.02 mol/L to 0.2 mol/L) were prepared in F-octanes (purity≥98%) and the frequency of the carbon to hydrogen (--C--H) stretching mode (T=50° C.) measured using FTIR (Fourier Transform Infrared Spectroscopy). The formation of F8H16 micelles in a fluorocarbon continuous phase results in the transfer of the F8H16 hydrocarbon groups from a fluorocarbon rich environment in the molecular solution to a hydrocarbon rich environment at the interior of the micelles. The occurrence of this phase change can be measured as a change in the FTIR stretching frequency for the carbon-hydrogen bonds in the --CH2 groups of the FmHn molecules. […] The inflection point in the curve confirmed the existence of F8H16 micelles and was used to define the critical micelle concentration at about 0.05 mol/L.
# A series of solutions of CF3 (CF2) 5 (CH2) 13 CH3 (F6H14; 0.02 mol/L to 0.2 mol/L) were prepared in F-octanes (purity≥98%) and the frequency of the carbon to hydrogen (--C--H) stretching mode (T=25° C.) measured using FTIR. The formation of F6H14 micelles was measured as a change in the FTIR stretching frequency for the carbon-hydrogen bonds in the --CH2 groups of the FmHn molecules. […] The inflection point in the curve confirmed the existence of F6H14 micelles and was used to define the critical micelle concentration at about 0.1 mol/L.
# [2] = cited from earlier work; for Log Po/w: octanol/water
# [3] = Titration of hydrocarbon oil into F-octanes until phase separation; solubilization by diblock dispersing agent; settings: for amount of hydrocarbon oil at which phase separation occurred: titrated into F-Octanes (8.82 g), before dispersing agent
structure (smiles),measurement,setting,value
CCCCCCCCCCCCCCC(F)(F)C(F)(F)C(F)(F)C(F)(F)C(F)(F)C(F)(F)F [Example F6H14],critical micelle concentration,[1]; T=25° C.,about 0.1 mol/L
"CCCCCCCCCCCCCCCCC(F)(F)C(F)(F)C(F)(F)C(F)(F)C(F)(F)C(F)(F)C(F)(F)C(F)(F)F [Example F8H16, 1-(F-octyl)hexadecane]",critical micelle concentration,[1]; T=50° C.,about 0.05 mol/L
Clc1cccc(Cl)c1N=C1NCCN1 [^3 H-clonidine],Octanol/water partition coefficient Po/w,[2],25.1
CC(=O)[C@@]1(O)CC[C@H]2[C@@H]3C[C@H](C)C4=CC(=O)C=C[C@]4(C)[C@@]3(F)[C@@H](O)C[C@@]21C [^3 H-fluorometholone],Octanol/water partition coefficient Po/w,[2],1.26 × 10^2
COc1ccc(C(=O)CC(=O)c2ccc(C(C)(C)C)cc2)cc1 [^3 H-parsol 1789],Octanol/water partition coefficient Po/w,[2],5.0 × 10^6
same,Log Po/w,[2],6.7
CC(C)(C)NCC(O)COc1cccc2c1CCCC2=O (stereo not drawn) [^14 C-bunolol],Octanol/water partition coefficient Po/w,[2],2.51 × 10^2
CCCCC(CC)COC(=O)c1ccc(N(C)C)cc1 (stereo not drawn) [^14 C-padimate-o],Octanol/water partition coefficient Po/w,[2],3.98 × 10^6
FC(F)(F)C(Cl)Br (stereo not drawn) [halothane],Octanol/water partition coefficient Po/w,[2],2.00 × 10^2
same,Log Po/w,[2],2.30
COC(=O)c1ccccc1O [methyl salicylate],amount of hydrocarbon oil at which phase separation occurred,[3],10 to 20 µL
same,solubilization in F-Octanes,"[3]; with F6H14 (17.3%, w/v)","2.2 %, v/v"
CCCCCC [n-hexane],amount of hydrocarbon oil at which phase separation occurred,[3],1700 µL
same,solubilization in F-Octanes,"[3]; with F8H16 (7.82%, w/v)","36.5 %, v/v"
CCCCNc1ccc(C(=O)OCCN(C)C)cc1 [tetracaine],Octanol/water partition coefficient Po/w,[2],79.4
